We go through 70 compounds from patent US20120165304A1, “6,7,8,9-Tetrahydro-5H-1,4,7,10a-tetraaza-cyclohept[f]indene derivatives, pharmaceutical compositions containing these compounds, their use and processes for preparing them” (BOEHRINGER INGELHEIM INTERNATIONAL GMBH, priority 2008, published 2012).

In this test the target is human 5-HT2C receptor (Homo sapiens, UniProt P28335, I156V/I160V/N158S). Briefly: cell-based.
Chain of human 5-HT2C receptor (P28335 33-458 I156V/N158S/I160V limits assumed): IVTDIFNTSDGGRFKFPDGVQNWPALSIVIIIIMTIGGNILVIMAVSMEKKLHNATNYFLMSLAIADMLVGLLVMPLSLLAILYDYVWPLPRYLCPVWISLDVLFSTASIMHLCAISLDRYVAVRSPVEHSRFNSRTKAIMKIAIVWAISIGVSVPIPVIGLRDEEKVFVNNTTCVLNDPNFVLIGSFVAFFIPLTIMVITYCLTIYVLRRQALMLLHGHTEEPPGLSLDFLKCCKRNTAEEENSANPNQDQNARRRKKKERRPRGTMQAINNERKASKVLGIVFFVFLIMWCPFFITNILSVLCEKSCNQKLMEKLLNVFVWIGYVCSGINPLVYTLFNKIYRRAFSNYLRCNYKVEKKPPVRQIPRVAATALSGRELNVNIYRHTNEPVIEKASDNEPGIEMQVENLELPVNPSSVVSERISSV
Broadly, the EC50 is the concentration needed to bring the measured effect to its halfway point. Read a low EC50 as higher potency in that assay. `Fc1ccc(OC2CN(c3c4c(nc5ccnn35)CCNCC4)C2)cc1` [Example 1.6] gave a half-maximal effective concentration (EC50) of 23 nM.
The same measure for `O=C(C1CN(c2c3c(nc4ccnn24)CCNCC3)C1)N1CCN(CC2CC2)CC1` [Example 37.17]: 3 nM; for `CN1CCc2nc3ccnn3c(N3CC(C(=O)N4CCN(C)CC4)C3)c2CC1` [Example 36.51]: 81 nM.
The figure for `CN1CCc2nc3ccnn3c(N3CC(C(=O)NC4CCCC(C(F)(F)F)C4)C3)c2CC1` (stereo not shown) [Example 36.45] is 87 nM; for `CC(C)C(NC(=O)C1CN(c2c3c(nc4ccnn24)CCNCC3)C1)C(F)(F)F` (stereo not shown) [Example 37.104] it is 106 nM.
The same measure for `O=C(C1CN(c2c3c(nc4ccnn24)CCNCC3)C1)N1CC[C@H](Oc2ccccc2)C1` [Example 31.212]: 34 nM; for `O=C(C1CN(c2c3c(nc4ccnn24)CCNCC3)C1)N1CCC(c2ccccc2)CC1` [Example 31.63]: 31 nM; for `Cc1ccc(CN(C)C(=O)C2CN(c3c4c(nc5ccnn35)CCNCC4)C2)cc1` [Example 31.50]: 51 nM.
Consider `C[C@H](c1ccccc1)N(C)C(=O)C1CN(c2c3c(nc4ccnn24)CCNCC3)C1` [Example 31.90], for which the concentration giving a half-maximal response (EC50) was determined as 465 nM.
For the compound `CC1Cc2ccccc2N1C(=O)C1CN(c2c3c(nc4ccnn24)CCNCC3)C1` (stereo not shown) [Example 31.234], the midpoint of the response, the EC50, lay at 380 nM.
`Cc1cnn2c(N3CC(C(=O)N4CCC(C(F)(F)F)CC4)C3)c3c(nc12)CCNCC3` [Example 31.237] registered an EC50 of 11 nM.
The figure for `CNC1CCN(C(=O)C2CN(c3c4c(nc5ccnn35)CCNCC4)C2)C1` (stereo not shown) [Example 37.26] is 2 nM; for `CCc1ccc(CN(C)C(=O)C2CN(c3c4c(nc5ccnn35)CCNCC4)C2)cc1` [Example 31.170] it is 64 nM.
`c1cc2nc3c(c(N4CC(OCC5CCCCC5)C4)n2n1)CCNCC3` [Example 20.4] returned an EC50 of 543 nM.
For the compound `CC(NC(=O)C1CN(c2c3c(nc4ccnn24)CCNCC3)C1)C(C)(C)C` (stereo not shown) [Example 37.111], the EC50 is 139 nM.
The figure for `Cc1ccc(OCC2CN(c3c4c(nc5ccnn35)CCNCC4)C2)cc1` [Example 15.18] is 140 nM; for `COc1ccc(CC2CN(c3c4c(nc5ccnn35)CCNCC4)C2)cc1` [Example 18.1] it is 119 nM; for `CN(Cc1cccs1)C(=O)C1CN(c2c3c(nc4ccnn24)CCNCC3)C1` [Example 31.43] it is 35 nM.
`Fc1ccc2[nH]c(C3CN(c4c5c(nc6ccnn46)CCNCC5)C3)nc2c1F` [Example 34.23]: a half-maximal response (EC50) required 594 nM.
The same measure for `Cc1cc(Cl)ccc1OC1CN(c2c3c(nc4ccnn24)CCNCC3)C1` [Example 35.20]: 326 nM; for `Fc1cccc(OC2CN(c3c4c(nc5ccnn35)CCNCC4)C2)c1` [Example 1.9]: 26 nM.
The same measure for `Cc1ccccc1OCC1CN(c2c3c(nc4ccnn24)CCNCC3)C1` [Example 15.1]: 6 nM; for `CN(CCc1ccc2ccccc2c1)C(=O)C1CN(c2c3c(nc4ccnn24)CCNCC3)C1` [Example 31.71]: 366 nM; for `O=C(C1CN(c2c3c(nc4ccnn24)CCNCC3)C1)N1CCC(c2ccc(F)cc2F)CC1` [Example 31.114]: 38 nM.
Consider `c1ccc2c(c1)ncn2C1CCN(c2c3c(nc4ccnn24)CCNCC3)CC1` [Example 1.42], for which the response was half-maximal at 9600 nM (EC50).
Compound `C[C@@H](NC(=O)C1CN(c2c3c(nc4ccnn24)CCNCC3)C1)C1CCCCC1` [Example 31.188] had an EC50 of 101 nM.
`CC(C)CN1CCN(C(=O)C2CN(c3c4c(nc5ccnn35)CCN(C)CC4)C2)CC1` [Example 36.17] showed a concentration giving a half-maximal response (EC50) of 88 nM.
The figure for `Cc1ccc(Cl)c(OC2CN(c3c4c(nc5ccnn35)CCNCC4)C2)c1` [Example 35.29] is 114 nM; for `CC1CC(c2ccccc2)CN1C(=O)C1CN(c2c3c(nc4ccnn24)CCNCC3)C1` (stereo not shown) [Example 31.128] it is 54 nM; for `O=C(C1CN(c2c3c(nc4ccnn24)CCNCC3)C1)N1CCC(Oc2ccccc2)CC1` [Example 31.154] it is 40 nM.
In turn, `CN(Cc1ccc(Cl)c(Cl)c1)C(=O)C1CCCN(c2c3c(nc4ccnn24)CCNCC3)C1` (stereo not shown) [Example 1.57] returned an EC50 of 2960 nM.
The same measure for `CN(CCC1CCCCC1)C(=O)C1CN(c2c3c(nc4ccnn24)CCNCC3)C1` [Example 31.84]: 126 nM.
The figure for `COC[C@@H]1CCN1c1c2c(nc3ccnn13)CCNCC2` [Example 8, (S)-10-(2-Methoxymethyl-azetidin-1-yl)-6,7,8,9-tetrahydro-5H-1,4,7,10a-tetraaza-cyclohepta[f]indene] is 272 nM; for `CN1CCc2nc3ccnn3c(N3CC(C(=O)N4CCC(N(C)C)CC4)C3)c2CC1` [Example 36.5] it is 51 nM.
As for `CN(C(=O)C1CCCN(c2c3c(nc4ccnn24)CCNCC3)C1)c1ccccc1` (stereo not shown) [Example 1.60], a half-maximal response (EC50) required 1590 nM.
The figure for `CCn1c(C2CN(c3c4c(nc5ccnn35)CCNCC4)C2)nc2cc(F)ccc21` [Example 34.39] is 666 nM.
The same measure for `CC(C)C1CCN(C(=O)C2CN(c3c4c(nc5ccnn35)CCNCC4)C2)CC1` [Example 31.85]: 23 nM.
The same measure for `Cn1c(C2CN(c3c4c(nc5ccnn35)CCNCC4)C2)nc2cc(Cl)ccc21` [Example 34.3]: 418 nM; for `O=C(C1CN(c2c3c(nc4ccnn24)CCNCC3)C1)N1CCCC1c1ccccc1` (stereo not shown) [Example 31.45]: 575 nM.
For `OC1CCN(c2c3c(nc4ccnn24)CCNCC3)CC1` [Example 1.36], the EC50 is 1850 nM.
The same measure for `CC(C)(C)N1CCC2(CCN(c3c4c(nc5ccnn35)CCNCC4)CC2)C1=O` [Example 1.65]: 4900 nM.
The figure for `Cc1ccc(CN(C)C(=O)C2CN(c3c4c(nc5ccnn35)CCNCC4)C2)s1` [Example 31.24] is 53 nM; for `O=C(C1CN(c2c3c(nc4ccnn24)CCNCC3)C1)N1CCC(c2cccc(F)c2)CC1` [Example 31.211] it is 31 nM; for `Brc1cccc(OC2CN(c3c4c(nc5ccnn35)CCNCC4)C2)c1` [Example 35.14] it is 477 nM.
`C[C@@H]1CN(C(=O)C2CN(c3c4c(nc5ccnn35)CCNCC4)C2)C[C@H](C)O1` [Example 31.42] yielded an EC50 of 37 nM.
The same measure for `O=C(C1CN(c2c3c(nc4ccnn24)CCNCC3)C1)N1CCc2cccc(Br)c2C1` [Example 31.207]: 43 nM.
The figure for `Fc1ccccc1OC1CN(c2c3c(nc4ccnn24)CCNCC3)C1` [Example 1.8] is 5 nM; for `CN1CCC2(CCN(C(=O)C3CN(c4c5c(nc6ccnn46)CCNCC5)C3)CC2)C1=O` [Example 31.151] it is 319 nM; for `CC1CNCCc2nc3ccnn3c(N3CCC3)c21` (stereo not shown) [Example 5, 10-Azetidin-1-yl-9-methyl-6,7,8,9-tetrahydro-5H-1,4,7,10a-tetraaza-cyclohepta[f]indene] it is 570 nM.
The figure for `Cc1ccc(OC2CN(c3c4c(nc5ccnn35)CCNCC4)C2)c(C)c1` [Example 35.6] is 266 nM; for `CC(C)COC1CN(c2c3c(nc4ccnn24)CCNCC3)C1` [Example 20.1] it is 359 nM.
With `O=C(NCC1CCCCO1)C1CN(c2c3c(nc4ccnn24)CCNCC3)C1` (stereo not shown) [Example 37.55], a half-maximal effect (EC50) was put at 66 nM.
The figure for `O=C(C1CN(c2c3c(nc4ccnn24)CCNCC3)C1)N1CCN2CCCC2C1` (stereo not shown) [Example 37.9] is 3 nM; for `c1ccc(COC2CN(c3c4c(nc5ccnn35)CCNCC4)C2)cc1` [Example 20, 10-(3-Benzyloxy-azetidin-1-yl)-6,7,8,9-tetrahydro-5H-1,4,7,10a-tetraaza-cyclohepta[f]indene] it is 350 nM; for `O=C(C1CN(c2c3c(nc4ccnn24)CCNCC3)C1)N1CCN(C2CCOCC2)CC1` [Example 37.31] it is 7 nM.
As for `Clc1ccc(OC2CN(c3c4c(nc5ccnn35)CCNCC4)C2)cc1` [Example 35, 10-[3-(4-Chloro-phenoxy)-azetidin-1-yl]-6,7,8,9-tetrahydro-5H-1,4,7,10a-tetraaza-cyclohepta[f]indene], it took 141 nM to reach a half-maximal effect (EC50).
For `c1ccc(C2CCN2c2c3c(nc4ccnn24)CCNCC3)cc1` (stereo not shown) [Example 21, 10-(2-Phenyl-azetidin-1-yl)-6,7,8,9-tetrahydro-5H-1,4,7,10a-tetraaza-cyclohepta[f]indene], the EC50 came out at 5200 nM.
On to `c1ccc(OC2CN(c3c4c(nc5ccnn35)CCNCC4)C2)cc1` [Example 1.3], for which the 50% effective concentration (EC50) was found to be 18 nM.
The same measure for `O=C(NC1CCC(F)(F)CC1)C1CN(c2c3c(nc4ccnn24)CCNCC3)C1` [Example 37.47]: 126 nM.
Compound `CC1CC(C)CC(N(C)C(=O)C2CN(c3c4c(nc5ccnn35)CCNCC4)C2)C1` (stereo not shown) [Example 31.216] displayed a concentration giving a half-maximal response (EC50) of 847 nM.
The figure for `c1cc2nc3c(c(N4CCCCC4)n2n1)CCNCC3` [Example 7.2] is 4560 nM; for `COc1ccccc1OC1CN(c2c3c(nc4ccnn24)CCNCC3)C1` [Example 35.54] it is 85 nM.
`Cc1cnn2c(N3CCC3)c3c(nc12)CCNCC3` [Example 27, 10-Azetidin-1-yl-3-methyl-6,7,8,9-tetrahydro-5H-1,4,7,10a-tetraaza-cyclohepta[f]indene] yielded an EC50 of 49 nM.
The same measure for `C[C@@H]1C[C@H](C)CN(C(=O)C2CN(c3c4c(nc5ccnn35)CCNCC4)C2)C1` [Example 31.180]: 36 nM; for `O=C(C1CN(c2c3c(nc4ccnn24)CCNCC3)C1)N1CC[C@@H](F)C1` [Example 31.205]: 116 nM.
As to `C#CCNC(=O)C1CN(c2c3c(nc4ccnn24)CCNCC3)C1` [Example 37.85], the concentration giving a half-maximal response (EC50) came out at 94 nM.
The figure for `O=C(C1CN(c2c3c(nc4ccnn24)CCNCC3)C1)N1CCCNCC1` [Example 37.6] is 2 nM; for `O=C(NC1CCCC1)C1CN(c2c3c(nc4ccnn24)CCNCC3)C1` [Example 31.18] it is 458 nM.
`CN(Cc1ccc(C#N)cc1)C(=O)C1CN(c2c3c(nc4ccnn24)CCNCC3)C1` [Example 31.2] had an EC50 of 14 nM.
The figure for `Cc1cnn2c(N3CC(C(=O)N4CCC(Oc5ccccc5)CC4)C3)c3c(nc12)CCNCC3` [Example 31.244] is 62 nM.
